Experimental data taken from US12453700B2, “Nano-particles of menaquinone-9 and methods of treatment” (Epizon, Inc., priority 2024, dated 2025).

Experiment: Dissolution testing of MK-9 API and nanosuspension in Fed State Simulated Intestinal Fluid (FeSSIF)
Format: physicochemical
Conditions: for % Dissolution (Avg of n = 3): FeSSIF pH 5, 37° C., 0.01 mg/mL drug load
Procedure: MK-9 (menaquinone-9, API) is suspended in an aqueous vehicle containing wetting agent sodium deoxycholate. The API concentration is 4% and the wetting agent concentration was 0.4% w/w. The API particles are milled to a particle size of 155 nm using zirconium milling beads and high shear Beadbeater mixing. The dissolution of the nanosuspension is tested at a concentration of 0.01 mg/mL, in triplicate, in pH 5 Fed State Simulated Intestinal Fluid (FeSSIF).
2. Fill three (3) vessels with 500 mL of FeSSIF media and heat to 37° C.
3. Set up the following dissolution conditions:
4. Vortex suspension x for approximately one minute so that it is uniform. Weigh three (3) aliquots of 0.15 g of the 4% nanosuspension into a tared syringe to give a target 100% dissolution concentration of 0.01 mg/mL. Record weight.
5. Add weighed suspension directly to each vessel.
7. After five minutes, manually pull up 3 mL from each dissolution vessel in a syringe.
8. Attach a 0.2 μm filter to the syringe.
9. Transfer 2 mL of the dissolution sample back into the vessel.
10. Transfer the final 1 mL of sample to an amber HPLC vial and crimp seal.
12. After the 60-minute time-point, mix each vessel for 5 minutes with a high shear mixer.
13. Repeat Step #8-11 and label this sample as ‘infinity’.
14. Run samples on HPLC 10 minutes HPLC method with replicate HPLC standard solutions.
MK-9 (menaquinone-9, API) is suspended in an aqueous vehicle containing wetting agent, sodium deoxycholate. The API concentration is 4% and the wetting agent concentration was 0.4% w/w. The API particles are milled to a particle size of 155 nm by use of zirconium milling beads and high shear Beadbeater mixing. The dissolution of the nanosuspension is tested at a concentration of 0.01 mg/mL, in triplicate, in pH 5 FeSSIF. […] The nano-milling process is scaled up and the suspended nano-particles are removed from the suspension vehicle, dry and formulate into a fast dissolving tablet, and tested.

SMILES: CC(C)=CCC/C(C)=C/CC/C(C)=C/CC/C(C)=C/CC/C(C)=C/CC/C(C)=C/CC/C(C)=C/CC/C(C)=C/CC/C(C)=C/CC1=C(C)C(=O)c2ccccc2C1=O [API, menaquinone-9]
- % Dissolution (Avg of n = 3) (timepoint 0 minute): 0%
- % Dissolution (Avg of n = 3) (timepoint 10 minute): 96%
- % Dissolution (Avg of n = 3) (timepoint 10 minute, listed as MK-9 API): about 20%
- % Dissolution (Avg of n = 3) (timepoint 15 minute): 97%
- % Dissolution (Avg of n = 3) (timepoint 30 minute): 97%
- % Dissolution (Avg of n = 3) (timepoint 45 minute): 98%
- % Dissolution (Avg of n = 3) (timepoint 60 minute): 96%
- % Dissolution (Avg of n = 3) (timepoint Infinity (after 5 minutes high shear mixing)): 97%
- % Dissolution (dissolution profile) (FeSSIF, at about 120 mins): about 20%
